{
  "source": "patent US11746116B2",
  "about": "“Antibiotic resistance breakers” (KING'S COLLEGE LONDON, priority 2017, dated 2023)",
  "key": {"[1]": {"tested_on": "Neisseria gonorrhoeae strains"}, "[2]": {"assay": "Single dose pharmacokinetics study, intravenous route", "conditions": "5 mg/kg"}, "[3]": {"conditions": "Male CD1 mouse, blood, Composite Mean"}, "[4]": {"conditions": "male, CD-1 (ICR), mouse, in vivo"}},
  "note": "Where “and” joins values, the source holds several entries; their conditions need not be identical. Equal entries are not always repeated. Where two headings read alike, the source gives them in different places.",
  "data": [
    {"smiles": "C[C@H]1COc2c(N3CC[C@@H](Nc4ncccn4)C3)c(F)cc3c(=O)c(C(=O)O)cn1c23", "note": "[KSN-82-L22]", "values": [
      {"measurement": "MIC", "setting": "[1]; strain FDA-CDC AR-BANK#0172, CIP-R PEN-R TET-R", "value": 1, "unit": "µg/mL"},
      {"measurement": "MIC", "setting": "[1]; strain FDA-CDC AR-BANK#0173, CIP-R PEN-R TET-R", "value": 2, "unit": "µg/mL"},
      {"measurement": "MIC", "setting": "[1]; strain FDA-CDC AR-BANK#0174, CIP-R PEN-R TET-R", "value": 2, "unit": "µg/mL"},
      {"measurement": "MIC", "setting": "[1]; strain FDA-CDC AR-BANK#0175, CIP-S PEN-I TET-I", "value": "< 0.0312", "unit": "µg/mL"},
      {"measurement": "MIC", "setting": "[1]; strain FDA-CDC AR-BANK#0176, CIP-R PEN-R TET-R", "value": 2, "unit": "µg/mL"},
      {"measurement": "MIC", "setting": "[1]; strain FDA-CDC AR-BANK#0177, CIP-S PEN-I TET-R", "value": "< 0.0312", "unit": "µg/mL"},
      {"measurement": "MIC", "setting": "[1]; strain FDA-CDC AR-BANK#0178, CIP-R PEN-R TET-R", "value": 2, "unit": "µg/mL"},
      {"measurement": "MIC", "setting": "[1]; strain FDA-CDC AR-BANK#0179, CIP-S PEN-S TET-I", "value": "< 0.0312", "unit": "µg/mL"},
      {"measurement": "MIC", "setting": "[1]; strain FDA-CDC AR-BANK#0180, CIP-R PEN-I TET-R", "value": 2, "unit": "µg/mL"},
      {"measurement": "MIC", "setting": "[1]; strain FDA-CDC AR-BANK#0181, CIP-S PEN-I TET-R", "value": "< 0.0312", "unit": "µg/mL"},
      {"measurement": "MIC", "setting": "[1]; strain FDA-CDC AR-BANK#0182, CIP-R PEN-I TET-R", "value": 2, "unit": "µg/mL"},
      {"measurement": "MIC", "setting": "[1]; strain FDA-CDC AR-BANK#0183, CIP-R PEN-R TET-R", "value": 2, "unit": "µg/mL"},
      {"measurement": "MIC", "setting": "[1]; strain FDA-CDC AR-BANK#0184, CIP-R PEN-R TET-R", "value": 2, "unit": "µg/mL"},
      {"measurement": "MIC", "setting": "[1]; strain FDA-CDC AR-BANK#0185, CIP-R PEN-I TET-R", "value": 2, "unit": "µg/mL"},
      {"measurement": "MIC", "setting": "[1]; strain FDA-CDC AR-BANK#0186, CIP-R PEN-R TET-R", "value": 1, "unit": "µg/mL"},
      {"measurement": "MIC", "setting": "[1]; strain FDA-CDC AR-BANK#0187, CIP-R PEN-I TET-R", "value": 2, "unit": "µg/mL"},
      {"measurement": "MIC", "setting": "[1]; strain FDA-CDC AR-BANK#0188, CIP-R PEN-I TET-R", "value": 1, "unit": "µg/mL"},
      {"measurement": "MIC", "setting": "[1]; strain FDA-CDC AR-BANK#0189, CIP-R PEN-R TET-R", "value": 2, "unit": "µg/mL"},
      {"measurement": "MIC", "setting": "[1]; strain FDA-CDC AR-BANK#0190, CIP-R PEN-R TET-R", "value": 2, "unit": "µg/mL"},
      {"measurement": "MIC", "setting": "[1]; strain FDA-CDC AR-BANK#0191, CIP-R PEN-R TET-R", "value": 2, "unit": "µg/mL"},
      {"measurement": "MIC", "setting": "[1]; strain FDA-CDC AR-BANK#0192, CIP-R PEN-R TET-R", "value": 2, "unit": "µg/mL"},
      {"measurement": "MIC", "setting": "[1]; strain FDA-CDC AR-BANK#0193, CIP-S PEN-R TET-R", "value": "< 0.0312", "unit": "µg/mL"},
      {"measurement": "MIC", "setting": "[1]; strain FDA-CDC AR-BANK#0194, CRO-NS CIP-S PEN-I TET-R", "value": "< 0.0312", "unit": "µg/mL"},
      {"measurement": "MIC", "setting": "[1]; strain FDA-CDC AR-BANK#0195, CIP-R PEN-I TET-R", "value": 2, "unit": "µg/mL"},
      {"measurement": "MIC", "setting": "[1]; strain FDA-CDC AR-BANK#0196, CIP-R PEN-R TET-R", "value": 2, "unit": "µg/mL"},
      {"measurement": "MIC", "setting": "[1]; strain FDA-CDC AR-BANK#0197, CIP-R PEN-I TET-I", "value": 2, "unit": "µg/mL"},
      {"measurement": "MIC", "setting": "[1]; strain FDA-CDC AR-BANK#0198, CIP-R PEN-R TET-R", "value": 2, "unit": "µg/mL"},
      {"measurement": "MIC", "setting": "[1]; strain FDA-CDC AR-BANK#0199, CIP-S PEN-R TET-R", "value": "< 0.0312", "unit": "µg/mL"},
      {"measurement": "MIC", "setting": "[1]; strain FDA-CDC AR-BANK#0200, CIP-R PEN-R TET-R", "value": 2, "unit": "µg/mL"},
      {"measurement": "MIC", "setting": "[1]; strain FDA-CDC AR-BANK#0201, CIP-R PEN-R TET-R", "value": 2, "unit": "µg/mL"},
      {"measurement": "MIC", "setting": "[1]; strain FDA-CDC AR-BANK#0202, CIP-S PEN-S TET-I", "value": "< 0.0312", "unit": "µg/mL"},
      {"measurement": "MIC", "setting": "[1]; strain FDA-CDC AR-BANK#0203, CIP-R PEN-R TET-R", "value": 2, "unit": "µg/mL"},
      {"measurement": "MIC", "setting": "[1]; strain FDA-CDC AR-BANK#0204, CIP-R PEN-I TET-R", "value": 2, "unit": "µg/mL"},
      {"measurement": "MIC", "setting": "[1]; strain FDA-CDC AR-BANK#0205, CIP-R PEN-R TET-R", "value": 2, "unit": "µg/mL"},
      {"measurement": "MIC", "setting": "[1]; strain FDA-CDC AR-BANK#0206, CIP-R PEN-R TET-R", "value": 2, "unit": "µg/mL"},
      {"measurement": "MIC", "setting": "[1]; strain FDA-CDC AR-BANK#0207, CIP-R PEN-R TET-R", "value": 2, "unit": "µg/mL"},
      {"measurement": "MIC", "setting": "[1]; strain FDA-CDC AR-BANK#0208, CIP-R PEN-I TET-R", "value": 2, "unit": "µg/mL"},
      {"measurement": "MIC", "setting": "[1]; strain FDA-CDC AR-BANK#0209, CIP-R PEN-I TET-R", "value": 2, "unit": "µg/mL"},
      {"measurement": "MIC", "setting": "[1]; strain FDA-CDC AR-BANK#0210, CIP-R PEN-I TET-I", "value": 2, "unit": "µg/mL"},
      {"measurement": "MIC", "setting": "[1]; strain FDA-CDC AR-BANK#0211, CIP-R PEN-R TET-R", "value": 2, "unit": "µg/mL"},
      {"measurement": "MIC", "setting": "[1]; strain FDA-CDC AR-BANK#0212, CIP-R PEN-I TET-R", "value": 2, "unit": "µg/mL"},
      {"measurement": "MIC", "setting": "[1]; strain FDA-CDC AR-BANK#0213, CIP-R PEN-I TET-I", "value": 1, "unit": "µg/mL"},
      {"measurement": "MIC", "setting": "[1]; strain FDA-CDC AR-BANK#0214, CIP-R PEN-R TET-R", "value": 2, "unit": "µg/mL"},
      {"measurement": "MIC", "setting": "[1]; strain TCDC-NG08107, PEN-R CFM-R CPD-R CIP-R", "value": 2, "unit": "µg/mL"},
      {"measurement": "Blood CL", "setting": "[2]; [3]", "value": 12.5, "unit": "mL/min/kg"},
      {"measurement": "Clast", "setting": "[2]; [3]", "value": 286, "unit": "ng/mL"},
      {"measurement": "AUC", "setting": "[2]; [4]", "value": "6420 ng·h/mL and 15.1 µM·h"},
      {"measurement": "AUC(0-inf)", "setting": "[2]; [4]", "value": 15.7, "unit": "µM·h"},
      {"measurement": "Cmax", "setting": "[2]; [4]", "value": "9390 ng/mL and 22.1 µM"},
      {"measurement": "MRT", "setting": "[2]; [4]", "value": 1.8, "unit": "h"},
      {"measurement": "half-life", "setting": "[2]; [4]", "value": 0.6, "unit": "h"}
    ]}
  ]
}
